# Measurements: article PMC11967380, “Rapid Determination of Xa Inhibitor Activity in Blood Using a Microfluidic Device that Measures Platelet Deposition and Fibrin Generation Under Flow” (TH Open: Companion Journal to Thrombosis and Haemostasis, 2025)
# Columns and labels:
# [1] = set-up: method as in PMID 31089975, PMID 23999929; details: cited from earlier work
# [2] = system: whole blood clotting on collagen/tissue factor (platelet and fibrin deposition); test: DOAC reversal and detection in blood of DOAC-treated patients (microfluidic platelet and fibrin signal); type: cell-based, human; details: 5,000 nM matching DOAC added ex vivo to patient blood, all subjects
# Description: Platelets were labeled in whole blood by the addition of an AlexaFluor 488-conjugated anti-CD61 molecule (Bio-Rad Laboratories) and fibrin was quantified via the addition of AlexaFluor 594-conjugated fibrinogen (Life Technologies Co.), as previously described. Chips were mounted on a Lumascope 620 (Etaluma Inc.) LED epifluorescence microscope with a 2.5× objective (Meiji Techno). Each chip was primed with 1% bovine serum albumin (BSA) in HEPES-buffered saline (HBS) to passivate the surfaces ( Fig. 1A ). A volume of 60 μL of whole blood was added to each inlet well. A vacuum pressure of 140 mbar was applied to the outlet to yield an initial wall shear rate of 200 s ^−1 . Fluorescence images were captured at 10 s intervals for green and red LED channels to obtain kinetic data for platelet and fibrin deposition on the collagen/TF zone for up to 25 min. Images were analyzed with ImageJ to calculate the average pixel brightness of an inner 200 μm by 200 μm region within each clot.
# For DOAC-treated patients on either rivaroxaban or apixaban, blood samples were obtained and analyzed, using the microfluidic device to measure platelets and fibrin deposition under flow as described above. […] For subjects 1 through 19, fluorescence data were collected for 15 minutes. […]
# Statistical significance was calculated for paired t -tests, using GraphPad Prism 9 (GraphPad Software). […]
smiles,measurement,setting,value
COc1ccc(-n2nc(C(N)=O)c3c2C(=O)N(c2ccc(N4CCCCC4=O)cc2)CC3)cc1 [apixaban],plasma protein binding,[1],high
same,fibrin signal,[2],nearly fully suppressed
O=C(NC[C@H]1CN(c2ccc(N3CCOCC3=O)cc2)C(=O)O1)c1ccc(Cl)s1 [rivaroxaban],plasma protein binding,[1],high
same,fibrin signal,[2],nearly fully suppressed
